Laboratory results taken from ChEMBL document CHEMBL1201862, “PubChem BioAssay data set” (2004).
The source made the active and inactive calls.

What was measured:
Albumin = Albumin (Bos taurus, UniProt P02769); test: Counterscreen for inhibitors of T-cell receptor (TCR)-CD3 interaction: Fluorescence-based biochemical high throughput dose response assay to identify inhibitors of T-cell receptor (TCR)-CD3 interaction using a TAMRA-labeled BSA probe.; format: functional
[1] = HEK293T cytotoxicity, dose response, cytotoxicity control for miR-122 modulator project, cell-based, inhibitor set, cherry-pick, set 2 (AID 720697); format: functional
[2] = NIH-3T3 fibroblast cytotoxicity, dose response, cytotoxicity control, cell-based, fluorescence, Alamar Blue, secondary assay (AID 2327); format: functional;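 note: NIH-3T3 mouse fibroblasts cultured with fluconazole at 8 µg/mL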
[3] = C. albicans growth with fluconazole, confirmation, fluorescence, retest (AID 2467); format: functional, cell-based
[4] = biological target: T1, Short transient receptor potential channel 4 (Mus musculus, UniProt Q9QUQ5); test: mouse TRPC4 channel activators, dose response, cell-based, HEK293 TRPC4/mu-opioid, Fluo-4 calcium (AID 434937); format: functional
T1 sequence (Q9QUQ5 whole entry): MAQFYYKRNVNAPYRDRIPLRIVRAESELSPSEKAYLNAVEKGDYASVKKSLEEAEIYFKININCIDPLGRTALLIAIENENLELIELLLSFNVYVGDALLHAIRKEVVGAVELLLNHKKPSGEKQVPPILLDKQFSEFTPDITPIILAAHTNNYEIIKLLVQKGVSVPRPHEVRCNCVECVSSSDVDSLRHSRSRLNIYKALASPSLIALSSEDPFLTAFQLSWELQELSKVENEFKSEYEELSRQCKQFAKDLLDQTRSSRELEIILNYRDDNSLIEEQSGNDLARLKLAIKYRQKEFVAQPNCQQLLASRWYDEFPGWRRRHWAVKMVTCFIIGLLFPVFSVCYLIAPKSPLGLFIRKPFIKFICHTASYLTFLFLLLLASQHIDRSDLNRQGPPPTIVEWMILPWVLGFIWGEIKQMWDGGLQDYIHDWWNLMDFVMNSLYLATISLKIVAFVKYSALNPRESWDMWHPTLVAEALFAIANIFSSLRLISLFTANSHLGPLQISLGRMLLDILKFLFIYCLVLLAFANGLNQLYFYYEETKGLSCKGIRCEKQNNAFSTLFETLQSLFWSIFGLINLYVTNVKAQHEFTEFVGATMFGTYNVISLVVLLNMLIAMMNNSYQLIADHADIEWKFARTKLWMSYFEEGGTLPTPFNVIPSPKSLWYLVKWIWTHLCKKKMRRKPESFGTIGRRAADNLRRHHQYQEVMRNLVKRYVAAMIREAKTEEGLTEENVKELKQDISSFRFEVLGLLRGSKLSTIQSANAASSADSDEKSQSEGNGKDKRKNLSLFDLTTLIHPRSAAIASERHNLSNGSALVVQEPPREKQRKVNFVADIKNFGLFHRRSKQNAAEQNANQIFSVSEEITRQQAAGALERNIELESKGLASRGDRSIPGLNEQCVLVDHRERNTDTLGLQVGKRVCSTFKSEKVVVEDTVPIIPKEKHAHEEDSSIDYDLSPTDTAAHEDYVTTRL

[5] = biological target: T2, High affinity choline transporter 1 (Homo sapiens, UniProt Q9GZV3); test: CHT inhibitors, dose response, cell-based, 5-point CRC, membrane potential dye (AID 504840); format: functional
T2 sequence (Q9GZV3 whole entry): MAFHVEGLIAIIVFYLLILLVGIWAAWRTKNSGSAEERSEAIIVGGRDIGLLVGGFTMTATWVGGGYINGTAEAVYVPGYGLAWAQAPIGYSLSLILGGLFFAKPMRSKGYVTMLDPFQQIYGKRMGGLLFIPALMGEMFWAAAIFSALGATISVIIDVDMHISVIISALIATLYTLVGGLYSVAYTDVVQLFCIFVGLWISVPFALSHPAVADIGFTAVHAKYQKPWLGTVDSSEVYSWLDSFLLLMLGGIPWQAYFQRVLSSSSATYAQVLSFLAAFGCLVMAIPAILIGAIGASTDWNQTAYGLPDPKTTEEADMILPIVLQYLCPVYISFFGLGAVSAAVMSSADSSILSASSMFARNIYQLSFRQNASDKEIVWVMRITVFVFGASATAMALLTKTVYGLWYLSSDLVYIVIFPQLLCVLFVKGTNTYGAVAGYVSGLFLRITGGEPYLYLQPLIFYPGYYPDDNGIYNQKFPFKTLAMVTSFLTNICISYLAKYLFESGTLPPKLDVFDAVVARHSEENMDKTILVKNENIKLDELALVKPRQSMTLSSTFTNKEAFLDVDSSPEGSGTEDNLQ

[6] = biological target: T2, High affinity choline transporter 1; test: CHT inhibitors, dose response, cell-based, 10-point CRC, membrane potential dye (AID 588401); format: functional;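 note: membrane potential dye fluorescence of choline-evoked depolarization via CHT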
[7] = biological target: T2, High affinity choline transporter 1; test: inhibitors of CHT choline uptake, dose response, cell-based, 3H-choline uptake, CHT LV-AA trafficking mutant, CRC (AID 602208); format: functional
[8] = biological target: T3, Methionyl-tRNA synthetase, putative (Trypanosoma brucei brucei, UniProt Q38C91); format: functional, Trypanosoma brucei brucei strain 927/4 GUTat10.1
[9] = Counterscreen for inhibitors of Trypanosoma brucei methionyl tRNA synthetase (MetRS): Luminescence-based cell-based high throughput dose response assay to identify compounds that are cytotoxic to Jurkat human T lymphocyte cells.; format: functional
[10] = biological target: T3, Methionyl-tRNA synthetase, putative; format: functional, Trypanosoma brucei brucei strain 927/4 GUTat10.1; remark: listed apart in the source
[11] = microbe, parasite or virus in culture; format: functional; details: Mycobacterium tuberculosis
[12] = biological target: T4, Low molecular weight phosphotyrosine protein phosphatase (Homo sapiens, UniProt P24666); format: functional; details: read-out: IC50_Mean
[13] = biological target: T4, Low molecular weight phosphotyrosine protein phosphatase; format: functional; details: read-out: IC50_Mean; remark: listed apart in the source
[14] = biological target: Fructose-bisphosphate aldolase (Mycobacterium tuberculosis, UniProt P9WQA3); test: Fluorescence-based biochemical high throughput dose response assay for inhibitors of the fructose-bisphosphate aldolase (FBA) of M. tuberculosis.; format: functional
Protein Wnt-3a = Protein Wnt-3a (Mus musculus, UniProt P27467); test: Wnt3a-driven reporter signaling inhibition, dose response, selectivity assay for Gli-SUFU antagonist project, Wnt-LIGHT cells, luminescence (AID 651570); format: functional; details: read-out: IC50_Mean;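 note: Wnt-LIGHT reporter cells stimulated with conditioned medium from Wnt3a-producing cells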
Major prion protein = Major prion protein (Homo sapiens, UniProt P04156); format: functional, cell-based
[15] = biological target: T5, Probable nicotinate-nucleotide adenylyltransferase (Staphylococcus aureus (strain N315), UniProt P65502); format: functional, Staphylococcus aureus subsp. aureus N315;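 for IC50 Mean: confirmatory dose-response retesting of NadD inhibitor hits first found in an ultra-high-throughput screen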
[16] = biological target: T5, Probable nicotinate-nucleotide adenylyltransferase; format: functional, Staphylococcus aureus subsp. aureus N315; details: read-out: IC50_Mean

With `O=C(NNC(=S)NC1CCCCC1)c1ccccc1O` the IC50 (Albumin) was > 94.1 µM (inactive).
With `CN(C(=O)c1ccccc1Cl)C1CCCCC1` the AC50 [1] was 0.346 µM (active).
With `CC(C)(C)C(=O)NC(=S)NNC(=O)C(c1ccccc1)c1ccccc1` the EC50 [2] was 5.35 µM (inconclusive), the EC50 [3] was 1.2 µM (active) and the EC50 [4] was 1.06 µM (active). The IC50 [5] was 6.48 µM (active) and the IC50 [6] was 4.01 µM (active).
With `O=C(NC1CCCCC1)c1ccc(OC2CCN(Cc3ccccn3)CC2)cc1` the IC50 [5] was 1.65 µM (active), the IC50 [6] was 0.891 µM (active) and the IC50 [7] was 8.43 µM (active).
With `Cc1cc(Cn2nc(-c3ccccc3)cc2C(=O)NCc2cccc(Br)c2)on1` the IC50 [8] was 5.75 µM (active), the IC50 [9] was 83.3 µM (inactive) and the IC50 [10] was 2.08 µM (active).
In the case of `CC(C)Oc1ccc(-c2nc(NCC3CCCO3)c3ccccc3n2)cc1` (configuration not stated), the CC50 [11] is reported as 29.2 µM (active), the IC50 [12] is reported as 24.2 µM (inactive) and the IC50 [13] is reported as 18.1 µM (active).
With `CNC(=O)c1cc2cc(OC)ccc2oc1=O` the IC50 [14] was 2.13 µM (active).
For `Cc1nnsc1C(=O)Nc1ccc(S(=O)(=O)N2CCC(C)CC2)cc1`, the IC50 (Protein Wnt-3a) was 27.1 µM (inactive).
In the case of `O=C(O)CCC(=O)NNC(=O)COc1ccc2ccccc2c1Br`, the IC50 (Major prion protein) is reported as 4.45 µM (active) and the IC50 (cells) is reported as > 138 µM (inactive).
For `Cc1ccc(C2(SCC(N)C(=O)O)c3ccccc3-c3ccccc32)cc1` (configuration not stated), the IC50 [15] was 11 µM (active) and the IC50 [16] was 32.5 µM (active).
